Values of other authors in US5827842A, “14α, 17α-C2 -bridged norprogesterone derivatives” (Schering Aktiengesellschaft, priority 1994, dated 1998).

Test system: endometrium

## CC(=O)[C@]12CC[C@@]3(CC1)[C@@H]1CCC4=CC(=O)CC[C@@H]4[C@H]1CC[C@]23C [14,17-Ethano-19-norpregn-4-ene-3,20-dione]
J. Med. Chem. 16, 270 (1973)
  factor between subcutaneous and peroral action: over 20
Oral administration
  gestagenic action in the Clauberg Test after oral administration: only a slight effect
Subcutaneous administration
  gestagenic action in the Clauberg Test after subcutaneous administration: good effect
